Measured values as given in US11479551B2, “MTA-cooperative PRMT5 inhibitors” (Mirati Therapeutics, Inc., priority 2019, dated 2022).
Read-outs that look alike come from different tables or passages of the source.

Target: PRMT5/MEP50 complex (Homo sapiens (Human), UniProt O14744)
Experiment: PRMT5:MEP50 FlashPlate Assay (histone H4 peptide substrate, plus and minus MTA)
Format: biochemical
Procedure: The PRMT5 inhibitory activity of compounds of the present invention was determined using either a PRMT5:MEP50 FlashPlate Assay (Reaction Biology Corporation) or a PRMT5:MEP50 HotSpot Assay (Reaction Biology Corporation).
1. PRMT5:MEP50 FlashPlate Assay

[1] = IC50 + 2 μM MTA (nM), in the presence of 2 μM MTA
[2] = in the absence of MTA, read-out: IC50

PRMT5/MEP50 complex, sequence (O14744 2-637): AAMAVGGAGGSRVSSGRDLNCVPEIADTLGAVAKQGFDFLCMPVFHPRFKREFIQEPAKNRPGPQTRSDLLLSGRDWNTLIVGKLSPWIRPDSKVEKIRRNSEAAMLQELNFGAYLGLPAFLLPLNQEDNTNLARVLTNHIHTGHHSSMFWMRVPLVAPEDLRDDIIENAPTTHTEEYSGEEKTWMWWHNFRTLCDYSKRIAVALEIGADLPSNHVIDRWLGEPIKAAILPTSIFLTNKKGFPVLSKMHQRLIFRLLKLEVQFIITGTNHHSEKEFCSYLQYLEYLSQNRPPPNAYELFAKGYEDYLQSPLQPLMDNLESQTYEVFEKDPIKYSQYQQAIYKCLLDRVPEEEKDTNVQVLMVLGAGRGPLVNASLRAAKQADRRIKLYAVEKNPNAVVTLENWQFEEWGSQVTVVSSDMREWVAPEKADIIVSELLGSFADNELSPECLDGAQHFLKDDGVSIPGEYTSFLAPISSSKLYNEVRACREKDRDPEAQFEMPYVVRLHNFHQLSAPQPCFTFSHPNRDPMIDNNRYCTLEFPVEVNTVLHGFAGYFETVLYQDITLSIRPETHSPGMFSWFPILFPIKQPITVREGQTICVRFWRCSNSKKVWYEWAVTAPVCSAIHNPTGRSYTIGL
PRMT5/MEP50 complex, sequence (Q9BQA1 2-342 partner): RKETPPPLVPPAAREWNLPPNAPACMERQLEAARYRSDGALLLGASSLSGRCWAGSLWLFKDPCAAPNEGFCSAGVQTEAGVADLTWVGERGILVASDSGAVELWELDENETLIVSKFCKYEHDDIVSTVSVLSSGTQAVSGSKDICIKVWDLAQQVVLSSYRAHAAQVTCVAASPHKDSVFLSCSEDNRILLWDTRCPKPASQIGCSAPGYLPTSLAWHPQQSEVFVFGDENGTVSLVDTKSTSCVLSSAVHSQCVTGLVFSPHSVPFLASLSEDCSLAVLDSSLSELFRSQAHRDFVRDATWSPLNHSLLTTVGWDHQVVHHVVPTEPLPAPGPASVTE

Row | SMILES | IC50 [1] [nM] | IC50 [2] [nM]
1 | Cc1ncc(-c2ccc3c(=O)[nH]nc(CN)c3c2)n1C [Example 4-4, 4-(aminomethyl)-6-(1,2-dimethyl-1H-imidazol-5-yl)phthalazin-1(2H)-one] | 230 | 5910
2 | Cc1c(-c2ccc3c(=O)[nH]nc(CN)c3c2)cncc1C1CC1 [Example 4-5, 4-(aminomethyl)-6-(5-cyclopropyl-4-methylpyridin-3-yl)phthalazin-1(2H)-one] | 150 | 1730
3 | N#Cc1ncccc1-c1ccc2c(=O)[nH]nc(CN)c2c1 [Example 4-7, 3-(4-(aminomethyl)-1-oxo-1,2-dihydrophthalazin-6-yl)picolinonitrile] | 8400 | > 100000
4 | Cn1ncc(-c2cncc(-c3ccc4c(=O)[nH]nc(CN)c4c3)c2)c1C#N [Example 4-8, 4-(5-(4-(aminomethyl)-1-oxo-1,2-dihydrophthalazin-6-yl)pyridin-3-yl)-1-methyl-1H-pyrazole-5-carbonitrile] | 440 | > 100000
5 | NCc1n[nH]c(=O)c2ccc(-c3cncc(OC(F)(F)F)c3)cc12 [Example 4-9, 4-(aminomethyl)-6-(5-(trifluoromethoxy)pyridin-3-yl)phthalazin-1(2H)-one] | 590 | 16000
6 | N#Cc1ccn(-c2cncc(-c3ccc4c(=O)[nH]nc(CN)c4c3)c2)n1 [Example 4-10, 1-(5-(4-(aminomethyl)-1-oxo-1,2-dihydrophthalazin-6-yl)pyridin-3-yl)-1H-pyrazole-3-carbonitrile] | 1000 | > 100000
7 | CN1CCn2ncc(-c3ccc4c(=O)[nH]nc(CN)c4c3)c2C1 [Example 4-11, 4-(aminomethyl)-6-(5-methyl-4,5,6,7-tetrahydropyrazolo[1,5-a]pyrazin-3-yl)phthalazin-1(2H)-one] | 110 | 2400
8 | NCc1n[nH]c(=O)c2ccc(-c3cncc4nccn34)cc12 [Example 4-12, 4-(aminomethyl)-6-(imidazo[1,2-a]pyrazin-5-yl)phthalazin-1(2H)-one] | 7400 | > 100000
9 | NCc1n[nH]c(=O)c2ccc(-c3cncn4cccc34)cc12 [Example 4-13, 4-(aminomethyl)-6-(pyrrolo[1,2-c]pyrimidin-4-yl)phthalazin-1(2H)-one] | 210 | 2560
10 | Cc1nc2ccc(Cl)nn2c1-c1ccc2c(=O)[nH]nc(CN)c2c1 [Example 4-14, 4-(aminomethyl)-6-(6-chloro-2-methylimidazo[1,2-b]pyridazin-3-yl)phthalazin-1(2H)-one] | 7900 | > 100000
11 | N#Cc1ccc2ncc(-c3ccc4c(=O)[nH]nc(CN)c4c3)n2c1 [Example 4-15, 3-(4-(aminomethyl)-1-oxo-1,2-dihydrophthalazin-6-yl)imidazo[1,2-a]pyridine-6-carbonitrile] | 260 | 3870
12 | Cc1ccc2ncc(-c3ccc4c(=O)[nH]nc(CN)c4c3)n2n1 [Example 4-17, 4-(aminomethyl)-6-(6-methylimidazo[1,2-b]pyridazin-3-yl)phthalazin-1(2H)-one] | 150 | 2050
13 | NCc1n[nH]c(=O)c2ccc(-c3cnc4ccc(Cl)nn34)cc12 [Example 4-18, 4-(aminomethyl)-6-(6-chloroimidazo[1,2-b]pyridazin-3-yl)phthalazin-1(2H)-one] | 280 | 4420
14 | COc1ccn2c(-c3ccc4c(=O)[nH]nc(CN)c4c3)cnc2c1 [Example 4-19, 4-(aminomethyl)-6-(7-methoxyimidazo[1,2-a]pyridin-3-yl)phthalazin-1(2H)-one] | 380 | > 100000
15 | Cc1ccc2ncc(-c3ccc4c(=O)[nH]nc(CN)c4c3)n2c1 [Example 4-20, 4-(aminomethyl)-6-(6-methylimidazo[1,2-a]pyridin-3-yl)phthalazin-1(2H)-one] | 47 | 1020
16 | NCc1n[nH]c(=O)c2ccc(-c3cnc4ccc(F)cn34)cc12 [Example 4-21, 4-(aminomethyl)-6-(6-fluoroimidazo[1,2-a]pyridin-3-yl)phthalazin-1(2H)-one] | 70 | 1970
